Reference: DBAASP
Converted amounts (≈) assume the structure as drawn. Each block holds one molecule with its values, some of them ahead of it.

Experiments:
Test in all cases: ≥ marks a high value that may be exact or a test limit, other limits are often not marked, values filed in µg/mL are converted to µM
[1] = test system: Staphylococcus aureus ATCC 25923
Micrococcus luteus = test system: Micrococcus luteus
Saccharomyces cerevisiae = test system: Saccharomyces cerevisiae
[2] = test system: Pseudomonas aeruginosa ATCC 15692
[3] = test system: Escherichia coli ATCC 25922
Escherichia coli = test system: Escherichia coli
[4] = test system: Bacillus subtilis ATCC 23857
[5] = test system: Klebsiella pneumoniae ATCC 700603
Escherichia coli JW0013 = test system: Escherichia coli JW0013
[6] = test system: Pseudomonas aeruginosa ATCC 9027
[7] = test system: Salmonella enterica subsp. enterica serovar Typhimurium ATCC 14028
[8] = test system: Escherichia coli DH5alpha
[9] = test system: Klebsiella pneumoniae ATCC 10031
[10] = test system: Staphylococcus aureus USA 100
[11] = test system: Candida albicans ATCC 90028
[12] = test system: Staphylococcus aureus USA 300

Structure (SMILES): CC[C@H](C)[C@H](NC(=O)[C@H](CO)NC(=O)[C@H](CO)NC(=O)[C@H](C)NC(=O)[C@H](Cc1c[nH]c2ccccc12)NC(=O)CN)C(=O)NCC(=O)N[C@@H](CO)C(=O)N[C@H](C(=O)N[C@@H](CC(C)C)C(=O)NCC(=O)N[C@@H](CCCCN)C(=O)N[C@@H](Cc1ccccc1)C(=O)N[C@@H](C)C(=O)N[C@@H](CCCCN)C(=O)NCC(=O)NCC(=O)N[C@@H](C)C(=O)N[C@@H](CCC(N)=O)C(=O)N[C@@H](C)C(=O)N[C@@H](Cc1ccccc1)C(=O)N[C@@H](CC(C)C)C(=O)N[C@@H](CCC(N)=O)C(=O)N1CCC[C@H]1C(=O)N[C@@H](CCCCN)C(=O)O)[C@@H](C)CC [GWASSIGSILGKFAKGGAQAFLQPK]
MIC [1]: > 256 µM
MIC (Micrococcus luteus): 0.5 µM (≈ 1.26 µg/mL)
MIC (Saccharomyces cerevisiae): ≥ 64 µM
MIC [2]: ≥ 128 µM
MIC [3]: 32 µM (≈ 80.6 µg/mL)

Structure (SMILES): CC[C@H](C)[C@H](NC(=O)[C@H](CCCCN)NC(=O)[C@H](CCCCN)NC(=O)[C@H](C)NC(=O)[C@@H](NC(=O)[C@H](C)NC(=O)[C@H](CC(C)C)NC(=O)[C@H](CC(C)C)NC(=O)[C@H](CCCCN)NC(=O)[C@H](CCCCN)NC(=O)[C@H](CC(C)C)NC(=O)[C@H](CC(N)=O)NC(=O)CN)C(C)C)C(=O)N[C@@H](CC(C)C)C(N)=O [GNLKKLLAVAKKIL]
MIC [1]: 16 µM (≈ 24.1 µg/mL)
MIC (Escherichia coli): 4 µM (≈ 6.03 µg/mL)
MIC [4]: 4 µM (≈ 6.03 µg/mL)
MIC [5]: 16 µM (≈ 24.1 µg/mL)

Structure (SMILES): CC[C@H](C)[C@H](NC(=O)CN)C(=O)N[C@H](C(=O)N[C@@H](C)C(=O)NCC(=O)N[C@H](C(=O)N[C@H](C(=O)N[C@@H](C)C(=O)N[C@@H](CCCCN)C(=O)N[C@H](C(=O)N[C@@H](CCCCN)C(=O)N[C@@H](CCCCN)C(N)=O)[C@@H](C)CC)[C@@H](C)CC)[C@@H](C)CC)[C@@H](C)CC [GIIAGIIAKIKK]
MIC [4]: ≥ 32 µM
MIC [3]: > 128 µM

Structure (SMILES): CC[C@H](C)[C@H](NC(=O)[C@H](CCCCN)NC(=O)[C@H](CCCCN)NC(=O)[C@H](C)NC(=O)[C@H](C)NC(=O)[C@H](C)NC(=O)[C@H](CC(C)C)NC(=O)[C@H](CC(C)C)NC(=O)[C@H](C)NC(=O)[C@H](CCCCN)NC(=O)[C@H](CC(C)C)NC(=O)[C@H](CC(N)=O)NC(=O)[C@@H](N)CC(C)C)C(=O)N[C@@H](CC(C)C)C(N)=O [LNLKALLAAAKKIL]
MIC [6]: 16 µM (≈ 23.7 µg/mL)
MIC [1]: 16 µM (≈ 23.7 µg/mL)
MIC [4]: 8 µM (≈ 11.8 µg/mL)
MIC [3]: 8 µM (≈ 11.8 µg/mL)
MIC [5]: 16 µM (≈ 23.7 µg/mL)

Structure (SMILES): CC(C)C[C@H](NC(=O)[C@H](C)NC(=O)[C@H](CCCCN)NC(=O)[C@H](CC(C)C)NC(=O)[C@H](CC(N)=O)NC(=O)[C@@H](N)CC(C)C)C(=O)N[C@@H](CC(C)C)C(=O)N[C@@H](C)C(=O)N[C@H](C(=O)N[C@@H](C)C(=O)N[C@@H](CCCCN)C(=O)N[C@@H](CCCCN)C(N)=O)C(C)C [LNLKALLAVAKK]
MIC [6]: > 128 µM
MIC [1]: > 128 µM
MIC [4]: ≥ 128 µM
MIC [3]: > 128 µM
MIC [5]: > 128 µM

Structure (SMILES): CC[C@H](C)[C@H](NC(=O)CN)C(=O)N[C@H](C(=O)N[C@@H](CCCN=C(N)N)C(=O)NCC(=O)N[C@H](C(=O)N[C@H](C(=O)N[C@@H](CCCCN)C(=O)N[C@H](C(=O)N[C@H](C(=O)N[C@@H](CCCCN)C(=O)N[C@@H](CCCN=C(N)N)C(N)=O)[C@@H](C)CC)[C@@H](C)CC)[C@@H](C)CC)[C@@H](C)CC)[C@@H](C)CC [GIIRGIIKIIKR]
MIC [4]: 8 µM (≈ 11 µg/mL)
MIC [3]: 64 µM (≈ 88.2 µg/mL)

Structure (SMILES): CC(C)C[C@H](NC(=O)CNC(=O)[C@H](C)NC(=O)[C@H](CC(C)C)NC(=O)[C@H](CC(C)C)NC(=O)[C@H](CCCCN)NC(=O)[C@H](CC(C)C)NC(=O)[C@@H](N)Cc1ccccc1)C(=O)N[C@@H](CC(C)C)C(=O)N[C@@H](CCCCN)C(=O)N[C@@H](CC(N)=O)C(=O)N[C@@H](Cc1ccccc1)C(=O)N[C@@H](C)C(=O)O [FLKLLAGLLKNFA]
MIC [7]: > 69.1 µM
MIC [8]: ≥ 69.1 µM
MIC [9]: ≥ 34.5 µM

Structure (SMILES): NCCCC[C@H](NC(=O)[C@H](Cc1c[nH]c2ccccc12)NC(=O)[C@H](CCCCN)NC(=O)[C@H](Cc1c[nH]c2ccccc12)NC(=O)[C@@H](N)CCCCN)C(=O)N[C@@H](Cc1c[nH]c2ccccc12)C(=O)O [KWKWKW]
MIC [6]: > 100 µM
MIC [10]: ≥ 100 µM
MIC [11]: ≥ 100 µM
MIC [12]: ≥ 100 µM

Structure (SMILES): CC(C)C[C@H](NC(=O)[C@H](CCCN=C(N)N)NC(=O)[C@@H](N)CC(C)C)C(=O)N[C@@H](CCCN=C(N)N)C(N)=O [LRLR]
MIC [10]: ≥ 100 µM

Structure (SMILES): NC(=O)[C@H](CCCN=C(N)N)NC(=O)[C@H](CCC(=O)O)NC(=O)[C@H](CCCN=C(N)N)NC(=O)[C@@H](N)CCC(=O)O [ERER]
MIC [10]: ≥ 100 µM

The remaining lines, values ahead:

MIC (Escherichia coli JW0013): 0.685 µM (≈ 1.7 µg/mL)
Structure (SMILES): CC[C@H](C)[C@H](NC(=O)[C@H](CCCN=C(N)N)NC(=O)[C@H](CCCN=C(N)N)NC(=O)[C@@H]1CCCN1C(=O)[C@@H]1CCCN1C(=O)[C@H](CCCN=C(N)N)NC(=O)[C@H](CCCN=C(N)N)NC(=O)[C@H](CCCN=C(N)N)NC(=O)[C@@H]1CCCN1C(=O)[C@H](CC(C)C)NC(=O)[C@H](Cc1ccc(O)cc1)NC(=O)[C@@H]1CCCN1C(=O)[C@H](CCCCN)NC(=O)[C@H](CCCCN)NC(=O)[C@H](CC(=O)O)NC(=O)[C@@H](N)C(C)C)C(=O)N[C@@H](Cc1ccc(O)cc1)C(=O)N[C@@H](CC(N)=O)C(=O)N[C@@H](CCCN=C(N)N)C(N)=O [VDKKPYLPRRRPPRRIYNR]

MIC (Escherichia coli JW0013): 0.973 µM (≈ 2.4 µg/mL)
Structure (SMILES): CC[C@H](C)[C@H](NC(=O)[C@H](CCCN=C(N)N)NC(=O)[C@H](CCCN=C(N)N)NC(=O)[C@@H]1CCCN1C(=O)[C@@H]1CCCN1C(=O)[C@H](CCCN=C(N)N)NC(=O)[C@H](CCCCN)NC(=O)[C@H](CCCN=C(N)N)NC(=O)[C@@H]1CCCN1C(=O)[C@H](CCCCN)NC(=O)[C@H](Cc1ccc(O)cc1)NC(=O)[C@@H]1CCCN1C(=O)[C@H](CCCCN)NC(=O)[C@H](CCCCN)NC(=O)[C@H](CC(=O)O)NC(=O)[C@@H](N)C(C)C)C(=O)N[C@@H](Cc1ccc(O)cc1)C(=O)N[C@@H](CC(N)=O)C(=O)N[C@@H](CCCN=C(N)N)C(N)=O [VDKKPYKPRKRPPRRIYNR]

MIC (Escherichia coli JW0013): 1.99 µM (≈ 4.8 µg/mL)
Structure (SMILES): CC[C@H](C)[C@H](NC(=O)[C@H](CCCN=C(N)N)NC(=O)[C@H](CCCN=C(N)N)NC(=O)[C@@H]1CCCN1C(=O)[C@@H]1CCCN1C(=O)[C@H](CCCN=C(N)N)NC(=O)[C@@H]1CCCN1C(=O)[C@H](CCCN=C(N)N)NC(=O)[C@@H]1CCCN1C(=O)[C@H](CC(C)C)NC(=O)[C@H](Cc1c[nH]c2ccccc12)NC(=O)[C@@H]1CCCN1C(=O)[C@@H]1CCCN1C(=O)[C@H](CCCCN)NC(=O)[C@H](CC(=O)O)NC(=O)[C@@H](N)C(C)C)C(=O)N[C@@H](Cc1ccc(O)cc1)C(=O)N[C@@H](CC(N)=O)C(=O)N[C@@H](CCCN=C(N)N)C(N)=O [VDKPPWLPRPRPPRRIYNR]

MIC (Escherichia coli JW0013): 1.36 µM (≈ 3.3 µg/mL)
Structure (SMILES): CC[C@H](C)[C@H](NC(=O)[C@H](CCCN=C(N)N)NC(=O)[C@H](CCCN=C(N)N)NC(=O)[C@@H]1CCCN1C(=O)[C@@H]1CCCN1C(=O)[C@H](CCCN=C(N)N)NC(=O)[C@@H]1CCCN1C(=O)[C@H](CCCN=C(N)N)NC(=O)[C@@H]1CCCN1C(=O)[C@H](CCCCN)NC(=O)[C@H](CCCN=C(N)N)NC(=O)[C@@H]1CCCN1C(=O)[C@H](CCCCN)NC(=O)[C@H](CCCCN)NC(=O)[C@H](CC(=O)O)NC(=O)[C@@H](N)C(C)C)C(=O)N[C@@H](Cc1ccc(O)cc1)C(=O)N[C@@H](CC(N)=O)C(=O)N[C@@H](CCCN=C(N)N)C(N)=O [VDKKPRKPRPRPPRRIYNR]

MIC [10]: ≥ 100 µM
Structure (SMILES): NC(=O)[C@H](CCCN=C(N)N)NC(=O)[C@H](CCCN=C(N)N)NC(=O)[C@H](CCCN=C(N)N)NC(=O)[C@@H](N)CCCN=C(N)N [RRRR]

MIC (Escherichia coli JW0013): 0.975 µM (≈ 2.4 µg/mL)
Structure (SMILES): CC[C@H](C)[C@H](NC(=O)[C@H](CCCN=C(N)N)NC(=O)[C@H](CCCN=C(N)N)NC(=O)[C@@H]1CCCN1C(=O)[C@@H]1CCCN1C(=O)[C@H](CCCN=C(N)N)NC(=O)[C@@H]1CCCN1C(=O)[C@H](CCCN=C(N)N)NC(=O)[C@@H]1CCCN1C(=O)[C@H](CC(C)C)NC(=O)[C@H](Cc1ccc(O)cc1)NC(=O)[C@H](Cc1cnc[nH]1)NC(=O)[C@H](CCCCN)NC(=O)[C@H](CCCCN)NC(=O)[C@H](CC(=O)O)NC(=O)[C@@H](N)C(C)C)C(=O)N[C@@H](Cc1ccc(O)cc1)C(=O)N[C@@H](CC(N)=O)C(=O)N[C@@H](CCCN=C(N)N)C(N)=O [VDKKHYLPRPRPPRRIYNR]

MIC (Escherichia coli JW0013): 1.34 µM (≈ 3.3 µg/mL)
Structure (SMILES): CC[C@H](C)[C@H](NC(=O)[C@H](CCCN=C(N)N)NC(=O)[C@H](CCCN=C(N)N)NC(=O)[C@@H]1CCCN1C(=O)[C@@H]1CCCN1C(=O)[C@H](CCCN=C(N)N)NC(=O)[C@@H]1CCCN1C(=O)[C@H](CCCN=C(N)N)NC(=O)[C@@H]1CCCN1C(=O)[C@H](CCCN=C(N)N)NC(=O)[C@H](CCCN=C(N)N)NC(=O)[C@@H]1CCCN1C(=O)[C@H](CCCCN)NC(=O)[C@H](CCCCN)NC(=O)[C@H](CC(=O)O)NC(=O)[C@@H](N)C(C)C)C(=O)N[C@@H](Cc1ccc(O)cc1)C(=O)N[C@@H](CC(N)=O)C(=O)N[C@@H](CCCN=C(N)N)C(N)=O [VDKKPRRPRPRPPRRIYNR]
